Data from patent publication US9028856B2, “Synergistic pesticide compositions” (priority 2008, dated 2015).
“Also recorded” adds a separate entry of the source.

Tested on: tropical house mosquito Culex quinquefasciatus (adults, 3 days old)
Test: Efficacy of formulations on surfaces (glazed/unglazed tiles, plywood), ten 3 day old mosquitoes, 3 min exposure
Type: in vivo
Conditions: for efficacy enhancement of the insecticide by the additive (summary in words): Culex quinquefasciatus, 3 min exposure, mostly 0.1% bendiocarb + 1% additive on glazed tiles; for % KD and Mortality: in acetone on glazed tiles, Table 84
Description: The ingredients were diluted in acetone to give a concentration which corresponds to the desired quantity of a.i./m^2. A 1 ml quantity of the solution was applied by pipette onto the 15 cm×15 cm surfaces without treating the outer edge of 1 cm.
(§1) Ten 3 day old Culex quinquefasciatus mosquitoes were exposed to each treatment for 3 minutes under a perforated petri dish, and then a clean untreated white paper index card was moved between treated surface and petri dish. A water-soaked cotton pad was applied immediately after.
Each test consisted of three replicates (three batches of ten mosquitoes were exposed for three minutes to the same surface, each one hour later), of which the mean values are calculated.
The test insects were Culex quinquefasciatus (adults, 3 days old). The compositions were evaluated for their ability to provide effective knock down after 3, 9, 15, and 30 minutes, 1, 2, 3, 4 and 24 hours (mortality). The experiments were performed in triplicate on glazed tile, but not repeated on wood.
Test Insects are Culex quinquefasciatus (adults, 3 days old). The Application provides the technical compounds were dissolved in acetone and applied as 1 ml solutions onto glazed tiles (15 cm×15 cm). An evaluation is provided at knock down after 3, 9, 15, and 30 minutes, 1, 2, 3, 4 and 24 hours (mortality). There are 3 replicates.
Test Insects: Culex quinquefasciatus (adults, 3 days old)
Application: The technical compounds were dissolved in acetone and applied as 1 ml solutions onto glazed tiles (15 cm×15 cm).
Evaluation: Knock down after 3, 9, 15, and 30 minutes, 1, 2, 3, 4 and 24 hours (mortality) […]
Application: The active ingredients were applied as 1 ml acetone solutions onto glazed tiles (15 cm×15 cm) […]
as §1, with “For the mosquitoes, the USDA Petri Dish Method is used. Ten” for “Ten”, “are” for “were”, “dish” for “dish,”, “is” for “was”, “after. […]” for “after.”

## CN1C(C)(C)CC(O)CC1(C)C [Derivative 8, 1,2,2,6,6-Pentamethyl-4-piperidinol]
Details as worded
  efficacy enhancement of the insecticide by the additive (summary in words): acted weaker in both tests
Details as worded, listed as 1,2,2,6,6-Pentamethyl-4-piperidinol
  efficacy enhancement of the insecticide by the additive (summary in words): no efficacy enhancement

## COC(=O)CCCCCCCCC(=O)OC [1% Dimethyl sebacate]
3′
  % KD and Mortality: 0%
9′
  % KD and Mortality: 0%
15′
  % KD and Mortality: 0%
30′
  % KD and Mortality: 0%
1 h
  % KD and Mortality: 0%
2 h
  % KD and Mortality: 0%
3 h
  % KD and Mortality: 0%
4 h
  % KD and Mortality: 0%
24 h (mortality)
  % KD and Mortality: 0%

## CC1(C)CC(O)CC(C)(C)N1[O] [Derivative 9, 4-Hydroxy-2,2,6,6 tetramethylpiperidin-1-oxyl]
  efficacy enhancement of the insecticide by the additive (summary in words): acted weaker in both tests
Listed as 4-Hydroxy-2,2,6,6 tetramethylpiperidin-1-oxyl (free radical)
  efficacy enhancement of the insecticide by the additive (summary in words): inhibited the efficacy of bendiocarb

## O=C(O)CCCCCCCCC(=O)O [1% Sebacic acid]
3′
  % KD and Mortality: 3%
9′
  % KD and Mortality: 3%
15′
  % KD and Mortality: 3%
30′
  % KD and Mortality: 3%
1 h
  % KD and Mortality: 3%
2 h
  % KD and Mortality: 3%
3 h
  % KD and Mortality: 3%
4 h
  % KD and Mortality: 3%
24 h (mortality)
  % KD and Mortality: 13%

## O=C(O)CCCCCCCCC(=O)O [Derivative 2, Sebacic acid]
Details as worded, listed as Sebacic acid
  efficacy enhancement of the insecticide by the additive (summary in words): no efficacy enhancement
Details as worded, listed as derivative 2
  efficacy enhancement of the insecticide by the additive (summary in words): acted weaker in both tests

## O=C(O)CC(O)(CC(=O)O)C(=O)O [citric acid]
Details as worded
  efficacy enhancement of the insecticide by the additive (summary in words): better efficacy of bendiocarb alone

## CC1(C)CC(O)CC(C)(C)N1[O]
3′
  % KD and Mortality: 0%
9′
  % KD and Mortality: 0%
15′
  % KD and Mortality: 0%
30′
  % KD and Mortality: 0%
1 h
  % KD and Mortality: 0%
2 h
  % KD and Mortality: 0%
3 h
  % KD and Mortality: 0%
4 h
  % KD and Mortality: 0%
24 h (mortality)
  % KD and Mortality: 7%

## CC1(C)CC(O)CC(C)(C)N1 [Derivative 7, 4-Hydroxy-2,2,6,6-tetramethylpiperidine]
Details as worded
  efficacy enhancement of the insecticide by the additive (summary in words): superior to Compound A in the first test and inferior in the second test

## CCCCCCCCON1C(C)(C)CC(OC(=O)CCCCCCCCC(=O)OC2CC(C)(C)N(OCCCCCCCC)C(C)(C)C2)CC1(C)C [Derivative 5, Bis(1-octyloxy-2,2,6,6-tetramethyl-4-piperidyl)sebacate]
Details as worded
  efficacy enhancement of the insecticide by the additive (summary in words): weaker as Compound A in both tests
Details as worded, listed as bis(1-octyloxy-2,2,6,6-tetramethyl-4-piperidyl)sebacate
  efficacy enhancement of the insecticide by the additive (summary in words): inhibited the efficacy of bendiocarb

## O=C(CCCCCCCCC(=O)OCc1ccccc1)OCc1ccccc1 [1% Sebacic acid dibenzyl ester]
3′
  % KD and Mortality: 0%
9′
  % KD and Mortality: 0%
15′
  % KD and Mortality: 0%
30′
  % KD and Mortality: 0%
1 h
  % KD and Mortality: 0%
2 h
  % KD and Mortality: 0%
3 h
  % KD and Mortality: 3%
4 h
  % KD and Mortality: 3%
24 h (mortality)
  % KD and Mortality: 7%

## CC1(C)CC(OC(=O)CCCCCCCCC(=O)OC2CC(C)(C)NC(C)(C)C2)CC(C)(C)N1 [Derivative 6, Bis(2,2,6,6-tetramethyl-4-piperidyl)sebacate]
Details as worded
  efficacy enhancement of the insecticide by the additive (summary in words): inhibited the efficacy of bendiocarb in both tests
Details as worded, listed as bis(2,2,6,6-tetramethyl-4-piperidyl)sebacate
  efficacy enhancement of the insecticide by the additive (summary in words): inhibited the efficacy of bendiocarb

## CC1(C)CC(O)CC(C)(C)N1
3′
  % KD and Mortality: 0%
9′
  % KD and Mortality: 0%
15′
  % KD and Mortality: 0%
30′
  % KD and Mortality: 0%
1 h
  % KD and Mortality: 0%
2 h
  % KD and Mortality: 0%
3 h
  % KD and Mortality: 0%
4 h
  % KD and Mortality: 0%
24 h (mortality)
  % KD and Mortality: 3%

## O=C(CCCCCCCCC(=O)ON1C(=O)CCC1=O)ON1C(=O)CCC1=O
3′
  % KD and Mortality: 0%
9′
  % KD and Mortality: 0%
15′
  % KD and Mortality: 0%
30′
  % KD and Mortality: 0%
1 h
  % KD and Mortality: 0%
2 h
  % KD and Mortality: 0%
3 h
  % KD and Mortality: 0%
4 h
  % KD and Mortality: 0%
24 h (mortality)
  % KD and Mortality: 0%

## CCCCCCCCON1C(C)(C)CC(OC(=O)CCCCCCCCC(=O)OC2CC(C)(C)N(OCCCCCCCC)C(C)(C)C2)CC1(C)C
3′
  % KD and Mortality: 3%
9′
  % KD and Mortality: 3%
15′
  % KD and Mortality: 3%
30′
  % KD and Mortality: 3%
1 h
  % KD and Mortality: 3%
2 h
  % KD and Mortality: 3%
3 h
  % KD and Mortality: 3%
4 h
  % KD and Mortality: 3%
24 h (mortality)
  % KD and Mortality: 7%

## O=C(CCCCCCCCC(=O)OCc1ccccc1)OCc1ccccc1 [Derivative 3, Sebacic acid dibenzyl ester]
Details as worded
  efficacy enhancement of the insecticide by the additive (summary in words): superior to Compound A (first test) or equal (second test)
Details as worded, listed as Sebacic acid dibenzyl ester
  efficacy enhancement of the insecticide by the additive (summary in words): superior to Compound A; also recorded: improved markedly the efficacy of bendiocarb

## O=C1O[C@H]([C@@H](O)CO)C(O)=C1O [ascorbic acid]
Details as worded
  efficacy enhancement of the insecticide by the additive (summary in words): complete decrease of efficacy

## COC(=O)CCCCCCCCC(=O)OC [Derivative 1, Dimethyl sebacate]
Details as worded
  efficacy enhancement of the insecticide by the additive (summary in words): acted weaker in both tests
Details as worded, listed as Dimethyl sebacate
  efficacy enhancement of the insecticide by the additive (summary in words): no efficacy enhancement

## O=C(CCCCCCCCC(=O)ON1C(=O)CCC1=O)ON1C(=O)CCC1=O [Derivative 4, Sebacic acid-bis-(N-succinimidyl)ester]
Details as worded
  efficacy enhancement of the insecticide by the additive (summary in words): weaker as Compound A in both tests
Details as worded, listed as Sebacic acid-bis-(N-succinimidyl)ester
  efficacy enhancement of the insecticide by the additive (summary in words): equivalent to Compound A

## CC1(C)CC(OC(=O)CCCCCCCCC(=O)OC2CC(C)(C)NC(C)(C)C2)CC(C)(C)N1
3′
  % KD and Mortality: 0%
9′
  % KD and Mortality: 0%
15′
  % KD and Mortality: 0%
30′
  % KD and Mortality: 0%
1 h
  % KD and Mortality: 3%
2 h
  % KD and Mortality: 0%
3 h
  % KD and Mortality: 3%
4 h
  % KD and Mortality: 3%
24 h (mortality)
  % KD and Mortality: 17%

## CN1C(C)(C)CC(O)CC1(C)C [1% 1,2,2,6,6-Pentamethyl-4-piperidinol]
3′
  % KD and Mortality: 0%
9′
  % KD and Mortality: 0%
15′
  % KD and Mortality: 0%
30′
  % KD and Mortality: 0%
1 h
  % KD and Mortality: 0%
2 h
  % KD and Mortality: 0%
3 h
  % KD and Mortality: 0%
4 h
  % KD and Mortality: 0%
24 h (mortality)
  % KD and Mortality: 0%
